Measurements: ChEMBL document CHEMBL4665649, “Resistance mechanisms and cross-resistance for a pyridine-pyrimidine amide inhibitor of microtubule polymerization” (Bioorg Med Chem Lett, 2019)
pEC50: −log10 of the molar value. Active and inactive are the calls of the source. No cut-off for these calls is given here.

Legend:
A2780 [1] = assay: Antiproliferative activity against human A2780 cells incubated for 72 hrs by ATPlite reagent based assay; type: functional, cell-based; settings: A2780, 72 h
A2780 [2] = assay: Antiproliferative activity against D4-9-31 resistance human A2780 cells incubated for 72 hrs by ATPlite reagent based assay; type: functional, cell-based; settings: A2780, 72 h
A2780 [3] = assay: Antiproliferative activity against human A2780 cells assessed as reduction in mitochondrial respiration; type: functional, cell-based
A2780 [4] = assay: Antiproliferative activity against D4-9-31 resistance human A2780 cells assessed as reduction in mitochondrial respiration; type: functional, cell-based
A2780 [5] = assay: Antiproliferative activity against human A2780 cells incubated for 72 hrs by live-cell imaging based assay; type: functional; settings: A2780, 72 h

Row | pEC50 (A2780 [5]) | SMILES | pEC50 (A2780 [1]) | pEC50 (A2780 [2]) | Activity (A2780 [3]) | Activity (A2780 [4])
1 | 7.92 | Cc1ncc(C(=O)Nc2ccc(-c3cccc(S(=O)(=O)C4CC4)c3)cn2)cn1 | 8.00 | 7.64 | Active | Active
2 | – | CC(=O)O[C@H]1C(=O)[C@@]2(C)[C@H]([C@H](OC(=O)c3ccccc3)[C@]3(O)C[C@H](OC(=O)[C@H](O)[C@@H](NC(=O)c4ccccc4)c4ccccc4)C(C)=C1C3(C)C)[C@]1(OC(C)=O)CO[C@@H]1C[C@@H]2O [PACLITAXEL] | 8.60 | 8.62 | – | –
3 | – | COc1cc2c(c(OC)c1OC)-c1ccc(OC)c(=O)cc1[C@@H](NC(C)=O)CC2 [COLCHICINE] | 8.04 | 8.06 | – | –
4 | – | C/C(=C\c1csc(C)n1)[C@@H]1C[C@@H]2O[C@]2(C)CCC[C@H](C)[C@H](O)[C@@H](C)C(=O)C(C)(C)[C@@H](O)CC(=O)O1 [PATUPILONE] | 8.28 | 8.40 | – | –
5 | – | CC[C@]1(O)C[C@H]2CN(CCc3c([nH]c4ccccc34)[C@@](C(=O)OC)(c3cc4c(cc3OC)N(C=O)[C@H]3[C@@](O)(C(=O)OC)[C@H](OC(C)=O)[C@]5(CC)C=CCN6CC[C@]43[C@@H]65)C2)C1 [VINCRISTINE] | 8.47 | 8.41 | – | –
6 | – | O=C(Nc1ccncc1)C(=O)c1cn(Cc2ccc(Cl)cc2)c2ccccc12 [INDIBULIN] | 7.72 | 7.70 | – | –
